Patent publication US10624949B1, “Methods for treating diseases related to the wnt pathway” (priority 2015, dated 2020)
“Also recorded” adds a separate entry of the source.

How the values were obtained:
[1] = tested on: RVFV MP12-induced β-catenin transcriptional activity; type: cell-based, human
[2] = tested on: RVFV MP12-GFP; assay: microbe, parasite or virus in culture; type: cell-based, Rift Valley fever virus; conditions: for inhibition at 10 µM: Rift Valley fever virus, Hepatocyte, read-out: inhibition of RVFV MP12-GFP infection
[3] = tested on: Wnt3A-induced β-catenin luc reporter expression; type: cell-based, human
[4] = tested on: RVFV MP12-GFP; type: cell-based, Rift Valley fever virus
[5] = tested on: VacV; type: cell-based, Vaccinia virus
[6] = tested on: VSV; type: cell-based, Vesicular Stomatitis virus
[7] = tested on: cellular models of cancer survival; conditions: preclinical studies; cited from earlier work
[8] = tested on: wild-type RVFV; type: cell-based, Rift Valley fever virus
[9] = tested on: LCV; type: cell-based, La Crosse virus
[10] = tested on: CEV; type: cell-based, California encephalitis virus
[11] = tested on: RVFV MP12; type: cell-based, Rift Valley fever virus
[12] = tested on: wild-type RVFV strain ZH-501; type: cell-based, Rift Valley fever virus
[13] = tested on: VSV; type: cell-based, Vesicular Stomatitis virus; remark: listed apart in the source
[14] = tested on: RVFV MP12-GFP; type: cell-based, Rift Valley fever virus; remark: listed apart in the source

Molecule	RVFV MP12-induced β-catenin reporter activity [1]	Wnt3A-induced β-catenin luc reporter activity [3]	RVFV MP12-GFP infection, inhibitor 1 hour prior to and during initial infection, removed after 3 hours (pre-treat) [4]	RVFV MP12-GFP infection, inhibitor added 1 hpi (post-treat) [4]	infection of RVFV MP12-GFP (relative percent infection) [2]	infection of VacV (relative percent infection) [5]	infection of VSV (relative percent infection) [6]	further results
CO/C1=C\C(C)=C\[C@@H](C)[C@@H](O)[C@@H](C)C/C(C)=C/C=C/[C@H](OC)[C@@H]([C@@H](C)[C@@H](O)[C@H](C)[C@@]2(O)C[C@@H](O)[C@H](C)[C@@H](C(C)C)O2)OC1=O [BAF]	blocked	–	–	–	–	–	–	–
O=C(Nc1cccc2cccnc12)c1ccc(N2C(=O)[C@@H]3[C@H](C2=O)[C@@H]2C=C[C@H]3C2)cc1 [Endo-IWR-1, 4-[(3aR,4S,7R,7aS)-1,3-dioxo-1,3,3a,4,7,7a-hexahydro-2H-4,7-methanoisoindol-2-yl]-N-(quinolin-8-yl)benzamide]	inhibited	inhibited	little to no effect	significantly inhibit	–	–	–	inhibition at 10 µM [2]: > 50%
Cc1cc([N+](=O)[O-])ccc1NS(=O)(=O)c1cc(Cl)ccc1Cl [FH535, 2,5-dichloro-N-(2-methyl-4-nitrophenyl)benzenesulfonamide]	inhibited	inhibited	little to no effect	significantly inhibit	reduced	did not diminish	did not diminish	–
COc1ccc(C2(CNC(=O)c3ccc(NC(=O)c4ccco4)cc3)CCOCC2)cc1 [JW55, N-[4-[[4-(4-methoxyphenyl)oxan-4-yl]methylcarbamoyl]phenyl]furan-2-carboxamide]	–	–	–	–	–	–	–	efficacy in cellular models of cancer survival [7]: demonstrated efficacy
O=C1Nc2ccccc2C12OCC1(CO2)COC2(OC1)C(=O)Nc1ccccc12 (stereo not drawn) [JW67, trispiro[3H-indole-3,2′-[1,3]dioxane-5′,5″-[1,3]dioxane-2″,3′″-[3H]indole]-2,2′″(1H,1′″H)-dione]	inhibited	inhibited	little to no effect	significantly inhibit	–	none of the inhibitors that stabilized the DC affected	none of the inhibitors that stabilized the DC affected	wild-type RVFV viral titers by plaque assay [8]: significant decrease; also recorded: significantly reduced; inhibition at 10 µM [2]: > 50%; LCV infection / viral titers by plaque assay [9]: significantly reduced; CEV infection / viral titers by plaque assay [10]: significantly reduced; RVFV MP12 viral titers by plaque assay [11]: significant decrease
CN(C)c1ccc(/C=C/c2c(F)cccc2F)cc1 [Wnt XII, (E)-4-(2,6-difluorostyryl)-N,N-dimethylaniline]	inhibited	inhibited	little to no effect	significantly inhibit	reduced	did not diminish	did not diminish	–
O=c1nc(-c2ccc(C(F)(F)F)cc2)[nH]c2c1CSCC2 [XAV939, 2-[4-(trifluoromethyl)phenyl]-1,5,7,8-tetrahydrothiopyrano[4,3-d]pyrimidin-4-one]	–	–	–	–	–	–	–	efficacy in cellular models of cancer survival [7]: demonstrated efficacy
Cc1cc(/C=C2\SC(=O)N(c3ccccc3)C2=O)c(C)n1-c1cccnc1 [iCRT-14, (5Z)-5-[(2,5-dimethyl-1-pyridin-3-ylpyrrol-3-yl)methylidene]-3-phenyl-1,3-thiazolidine-2,4-dione]	inhibited	inhibited	little to no effect	significantly inhibit	reduced	did not diminish	did not diminish	wild-type RVFV viral titers by plaque assay [8]: significant decrease; RVFV MP12 viral titers by plaque assay [11]: significant decrease
WIF-1	no effect	dose-dependent reduction	no effect	no effect	unable to reduce infection	unable to reduce infection	unable to reduce infection	–
Wnt3A (protein, UniProt P56704 19-352, looked up) Protein Wnt-3a: SYPIWWSLAVGPQYSSLGSQPILCASIPGLVPKQLRFCRNYVEIMPSVAEGIKIGIQECQHQFRGRRWNCTTVHDSLAIFGPVLDKATRESAFVHAIASAGVAFAVTRSCAEGTAAICGCSSRHQGSPGKGWKWGGCSEDIEFGGMVSREFADARENRPDARSAMNRHNNEAGRQAIASHMHLKCKCHGLSGSCEVKTCWWSQPDFRAIGDFLKDKYDSASEMVVEKHRESRGWVETLRPRYTYFKVPTERDLVYYEASPNFCEPNPETGSFGTRDRTCNVSSHGIDGCDLLCCGRGHNARAERRREKCRCVFHWCCYVSCQECTRVYDVHTCK	–	–	–	–	–	–	–	wild-type RVFV infection (number of plaques) [12]: enhanced; VSV infection after Wnt3A pre-treatment [13]: remained unchanged; RVFV MP12-GFP viral infection after Wnt3A pre-treatment [14]: significantly enhanced; increase in RVFV MP12-GFP infection [14]: greater than 4.5 fold
DKK-1 (protein, UniProt O94907 32-266, looked up) Dickkopf-related protein 1: TLNSVLNSNAIKNLPPPLGGAAGHPGSAVSAAPGILYPGGNKYQTIDNYQPYPCAEDEECGTDEYCASPTRGGDAGVQICLACRKRRKRCMRHAMCCPGNYCKNGICVSSDQNHFRGEIEETITESFGNDHSTLDGYSRRTTLSSKMYHTKGQEGSVCLRSSDCASGLCCARHFWSKICKPVLKEGQVCTKHRRKGSHGLEIFQRCYCGEGLSCRIQKDHHQASNSSRLHTCQRH	no effect	dose-dependent reduction	no effect	no effect	unable to reduce infection	unable to reduce infection	unable to reduce infection	–
